Laboratory results: patent US4600715A, “Benzodiazepine antagonistic β-carboline derivatives and compositions thereof” (Shering Aktiengesellschaft, priority 1983, dated 1986)
≈ marks a conversion by molar mass, not a printed value.

Biological target: benzodiazepine receptors
Assay: in vitro displacement of specific ^3 H flunitrazepam binding, cerebral membrane suspension
Details: ^3 H flunitrazepam 1.0 nM, 0° C.; rat cerebrum, pH 7.1; concentration effecting 50% displacement of specific binding

Row | Structure (SMILES) | IC50 (in vitro), displacement activity
1 | CCOC(=O)c1ncc2[nH]c3ccc(C(=O)N(C)C)cc3c2c1COC [CO2 Et, CH2 OCH3, CON(CH3)2, 6-N,N-dimethylcarbamoyl-4-methoxymethyl-β-carboline-3-carboxylic acid ethyl ester] | 1.3 ng/mL (≈ 3.66 nM)
2 | C=CCN(CC=C)C(=O)c1ccc2[nH]c3cnc(C(=O)OCC)c(C)c3c2c1 [CO2 Et, CH3, CON(Allyl)2, 6-N,N-diallylcarbamoyl-4-methyl-β-carboline-3-carboxylic acid ethyl ester] | 0.4 ng/mL (≈ 1.06 nM)
3 | CCOC(=O)c1cc2c(cn1)[nH]c1ccc(C(=O)N3CCCCC3)cc12 [CO2 Et, H, drawing 10, 6-piperidinocarbonyl-β-carboline-3-carboxylic acid ethyl ester] | 0.6 ng/mL (≈ 1.71 nM)
4 | CCCOC(=O)c1ccc2[nH]c3cnc(C(=O)OCC)c(C)c3c2c1 [CO2 Et, Me, COOC3 H7, 6-propoxycarbonyl-4-methyl-β-carboline-3-carboxylic acid ethyl ester] | 0.5 ng/mL (≈ 1.47 nM)
5 | CCc1noc(-c2cc3c(cn2)[nH]c2ccc(C(=O)N4CCCCC4)cc23)n1 [drawing 11, H, drawing 12, 3-(5'-[3'-ethyl-1',2',4'-oxadiazol]yl)-β-carboline-6-carboxylic acid piperidide] | 0.6 ng/mL (≈ 1.6 nM)

Biological target: benzodiazepine receptors
Assay: not given
Details: comparison compound marked *Nature 294: 472 (1981); ^3 H flunitrazepam 1.0 nM, 0° C.; cited from earlier work

Row | Structure (SMILES) | IC50 (in vitro), displacement activity
6 | COC(=O)c1cc2c(cn1)[nH]c1ccccc12 [CO2 Me, H, H] | 1.9 ng/mL (≈ 8.4 nM)
